Holding throughout (test): DTP human tumour cell line panel, 48 h
Test [1] has as its system COLO 205.
Test [2] has as its system DU-145.
The test system of test [3] is HCT-15.
In test [4] the test system is HOP-62.
For test [5], the system named is MCF7.
The test system of test [6] is MDA-MB-231.
The test system of test [7] is NCI-H522.
Test [8] relates to NCI/ADR-RES.
In test [9] the test system is SF-539.
In test [10] the test system is SK-MEL-28.
Test [11] relates to SW-620.
The subject of test [12] is TK-10.
The subject of test [13] is BT-549.
The test system of test [14] is SR.

Here are results for twelve compounds from ChEMBL document CHEMBL1201862, “PubChem BioAssay data set” (2004).

Structures are written as SMILES.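 Five concentrations, 48 hours, 96-well plates. GI50 = concentration required for 50% inhibition of growth.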 Calls of active or inactive are those of the source. No stated cut-off is given here; in the data, active = GI50 up to about 1.1 µM and inactive = higher. Some results are limits rather than exact numbers.

Usually GI50 stands for the concentration at which growth is held to half of that of the control.

Consider `N#C/C(=C/C=C/c1ccco1)C(N)=O`, for which the GI50 in test [1] was > 10 µM (inactive); in test [2], > 10 µM (inactive); in [3] it was over 10 µM; in test [4], > 10 µM (inactive); in [5] it was > 10 µM (inactive); in test [6] it was > 10 µM (inactive). Moreover, the GI50 in test [7], in test [8], in [9], in test [10], in test [11] and in test [12] was > 10 µM (inactive) throughout.
As to `Clc1cccc(N/N=N/c2ccc(-c3nc4ccccc4s3)cc2)c1`, the GI50 in test [13] was 51.2 µM (inactive); in test [1] it was > 100 µM (inactive); in test [2], > 100 µM (inactive); in test [3], 32.4 µM; in test [4], > 100 µM (inactive); in [5] it was 47.5 µM (inactive). Moreover, the GI50 is 24.2 µM (inactive) in [7]; 27.9 µM (inactive) in test [8]; 82.8 µM (inactive) in [9]; 42.8 µM (inactive) in test [10]; 20.9 µM (inactive) in test [14]; 33.7 µM (inactive) in test [11]. For the same compound, the GI50 in test [12] was 94.6 µM (inactive).
Take `C[C@@H]1S[C@H](c2c(Cl)cccc2Cl)N2Cc3ccccc3N=C12`: the GI50 is > 100 µM (inactive) in test [13]; > 100 µM (inactive) in test [1]; > 100 µM (inactive) in [2]; over 100 µM in [3]; > 100 µM (inactive) in test [4]; > 100 µM (inactive) in test [5]. Further, the GI50 in test [6], in test [9], in test [10], in [14], in test [11] and in [12] was > 100 µM (inactive) in each case.
With `Cn1c(=N)n[n+]([O-])c2ccccc21`, the GI50 in test [13] was 2.01 µM (inactive); in [1], 2.33 µM (inactive); in test [2], 2.28 µM (inactive); in test [4], 2.52 µM (inactive); in test [5], 1.8 µM (inactive); in test [6], 11.7 µM (inactive). Also, the GI50 in [7] was 2.86 µM (inactive); in test [9], 1.5 µM (inactive); in test [11] it was 2.74 µM (inactive); in test [12], 27.2 µM (inactive).
As for `COc1ccc2c(c1)CN1C(=N2)CSC1c1cccc(Br)c1` (centres undefined), the GI50 is 26.2 µM (inactive) in test [13]; 31.7 µM (inactive) in test [1]; 11 µM in test [3]; 46.8 µM (inactive) in test [4]; 10.6 µM (inactive) in [5]; > 100 µM (inactive) in test [6]. The GI50 in test [7] is 22.6 µM (inactive); in [8], 48.8 µM (inactive); in test [9], 15.4 µM (inactive); in test [10], 11.9 µM (inactive); in test [14] it was 5.33 µM (inactive); in test [11], 15.8 µM (inactive). In test [12], the GI50 is 59.8 µM (inactive).
As to `NC1c2c(Br)sc(N3CCCC3)c2C(=O)C1O` (centres undefined), the GI50 in [13] was > 50 µM (inactive); in test [1], > 50 µM (inactive); in test [2], > 50 µM (inactive); in test [3] it was over 50 µM; in test [5], > 50 µM (inactive); in test [6], 29.1 µM (inactive). The GI50 in [7], in test [8], in test [9], in test [11] and in [12] was > 50 µM (inactive) each time.
Regarding `COc1ccc(/C=C2/CSCC3=C2N=C(S)NC3c2ccc(OC)c(OC)c2OC)c(OC)c1OC` (centres undefined), the GI50 in [1] was 19.9 µM (inactive); in [2] it was 38.3 µM (inactive); in test [3], 25.7 µM; in test [4], 20.1 µM (inactive); in test [5] it was 0.0798 µM (active); in test [6] it was 17.7 µM (inactive). Also, the GI50 is 22.1 µM (inactive) in [7]; 7.43 µM (inactive) in test [8]; 16.8 µM (inactive) in [9]; 18.4 µM (inactive) in test [10]; < 0.01 µM (active) in test [14]; 27.7 µM (inactive) in [11]. In test [12], the GI50 was 26.2 µM (inactive).
For `COc1ccc(/C=C2\Sc3nnc(CNc4ccc(Cl)cc4)n3N=C2c2cc(F)c(Cl)cc2Cl)cc1OC`, the GI50 was 71.6 µM (inactive) in test [2]; 15.9 µM in test [3]; > 100 µM (inactive) in test [4]; 23.9 µM (inactive) in [5]; > 100 µM (inactive) in [6]; 27.7 µM (inactive) in test [7]. The GI50 was 17.9 µM (inactive) in test [8]; > 100 µM (inactive) in test [9]; > 100 µM (inactive) in [10]; 21 µM (inactive) in test [14]; 15.8 µM (inactive) in test [11]; 86.7 µM (inactive) in test [12].
With `COC1C(=O)CCC2(CO2)C1(O)C1(C)OC1CC=C(C)C` (centres undefined), the GI50 is 50.6 µM (inactive) in [13]; 16.6 µM (inactive) in [1]; 19.5 µM (inactive) in test [2]; 19 µM in test [3]; 14.7 µM (inactive) in [4]; 11.8 µM (inactive) in [5]. Also, the GI50 in test [6] was > 100 µM (inactive); in [10], 17.3 µM (inactive); in test [14], 13.9 µM (inactive); in test [11] it was 18.4 µM (inactive); in [12] it was 22.9 µM (inactive).
As for `Cc1ccc(C(=O)N/N=C(\N=N\c2ccccc2)c2ccc(N(CCC#N)CCC#N)cc2C)cc1`, the GI50 in [1] was > 100 µM (inactive); in test [2], > 100 µM (inactive); in test [3], over 100 µM; in test [4], 23.1 µM (inactive); in test [5], 53.5 µM (inactive); in [6], > 100 µM (inactive). Moreover, the GI50 is 19.4 µM (inactive) in [7]; > 100 µM (inactive) in test [8]; 18.3 µM (inactive) in test [9]; 13 µM (inactive) in test [10]; > 100 µM (inactive) in test [14]; > 100 µM (inactive) in test [11]. Also, the GI50 in [12] is 51.1 µM (inactive).
For the compound `CCN(CC)CCOC(NC(C)=O)(c1ccccc1)c1ccccc1`, the GI50 was > 100 µM (inactive) in test [1]; > 100 µM (inactive) in [2]; over 100 µM in [3]; > 100 µM (inactive) in test [4]; > 100 µM (inactive) in test [5]; > 100 µM (inactive) in [6]. In addition, the GI50 in test [8], in test [9], in [10], in test [14], in test [11] and in [12] was > 100 µM (inactive) throughout.
For `CC(=O)OC1CC[C@@]2(C)C(=CC[C@@H]3[C@@H]2CC[C@]2(C)C(OC(C)=O)[C@H](n4ccnc4)C[C@@H]32)C1` (some centres undefined), the GI50 is 18.5 µM (inactive) in test [1]; 73.5 µM (inactive) in [2]; 15.5 µM in test [3]; 16.4 µM (inactive) in test [5]; 37.2 µM (inactive) in [6]; 14.4 µM (inactive) in test [7]. Besides, the GI50 in test [8] is 25.8 µM (inactive); in [9] it was 15.3 µM (inactive); in test [10], 17.7 µM (inactive); in test [14] it was 16.1 µM (inactive); in [11], 33.6 µM (inactive); in [12] it was > 100 µM (inactive).
